According to patent US10993999B2, “Materials and methods for producing improved lentiviral vector particles” (IMMUNE DESIGN CORP., priority 2012, dated 2021):

Test system: Human PBMCs (DCs, B-cells, T-cells)
Assay: Transduction specificity in GM-CSF/IL-4 treated human PBMC culture
Conditions: all cell populations

Compound: Cc1ccnc2c1NC(=O)c1cccnc1N2C1CC1 [Nevirapine]
- effect of RT inhibitor on transduction: completely ablated
